Laboratory results as given in ChEMBL document CHEMBL4842313, “Combating multi-drug resistant malaria parasite by inhibiting falcipain-2 and heme-polymerization: Artemisinin-peptidyl vinyl phosphonate hybrid molecules as new antimalarials” (Eur J Med Chem, 2021).
Calls of active or inactive are those of the source. No cut-off for these calls is given here.

Tests used:
Plasmodium falciparum [1] = assay: Antimalarial activity against Plasmodium falciparum 3D7 assessed as parasite growth inhibition incubated for 48 hrs by SYBR green DNA fluorescent dye-binding assay; format: functional, organism-based; conditions: 3D7, 48 h
Falcipain 2 [2] = target: T1, Falcipain 2 (Plasmodium falciparum, UniProt Q9N6S8); assay: Inhibition of recombinant Plasmodium falciparum falcipain-2 expressed in Escherichia coli M15 assessed as reduction in free AMC release using Z-FR-AMC as a substrate measured over 30 mins by fluorometric assay
T1 sequence (Q9N6S8 whole entry): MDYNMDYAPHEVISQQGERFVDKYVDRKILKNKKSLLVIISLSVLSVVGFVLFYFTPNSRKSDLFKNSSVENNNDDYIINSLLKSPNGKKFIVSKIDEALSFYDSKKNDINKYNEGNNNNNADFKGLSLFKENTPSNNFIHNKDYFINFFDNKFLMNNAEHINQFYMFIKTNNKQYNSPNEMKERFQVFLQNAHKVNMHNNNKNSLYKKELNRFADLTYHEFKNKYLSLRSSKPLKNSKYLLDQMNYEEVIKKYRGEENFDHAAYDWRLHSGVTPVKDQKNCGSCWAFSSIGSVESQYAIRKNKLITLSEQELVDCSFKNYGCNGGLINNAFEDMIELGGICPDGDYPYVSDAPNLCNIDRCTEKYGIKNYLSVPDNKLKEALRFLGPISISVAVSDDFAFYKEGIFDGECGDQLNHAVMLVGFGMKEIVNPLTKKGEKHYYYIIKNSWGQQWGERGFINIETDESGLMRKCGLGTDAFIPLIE

Falcipain 2 [3] = target: T1, Falcipain 2; assay: Inhibition of recombinant Plasmodium falciparum falcipain-2 expressed in Escherichia coli M15 assessed as reduction in free AMC release using Z-FR-AMC as a substrate measured over 30 mins by Cheng-prusoff equation analysis
Plasmodium falciparum [4] = assay: Antimalarial activity against chloroquine, pyrimethamine and mefloquine-resistant Plasmodium falciparum Dd2 assessed as parasite growth inhibition incubated for 48 hrs by SYBR green DNA fluorescent dye-binding assay; format: functional, organism-based; conditions: Dd2, 48 h
[5] = target: T2, Heme ligase (Plasmodium falciparum (isolate 3D7)) (UniProt Q8IL04); assay: Inhibition of recombinant Plasmodium falciparum heme detoxification protein expressed in Escherichia coli M15 assessed as reduction in hemozoin formation using heme as substrate measured after 3 hrs relative to control; conditions: concentration not given here
T2 sequence (whole entry): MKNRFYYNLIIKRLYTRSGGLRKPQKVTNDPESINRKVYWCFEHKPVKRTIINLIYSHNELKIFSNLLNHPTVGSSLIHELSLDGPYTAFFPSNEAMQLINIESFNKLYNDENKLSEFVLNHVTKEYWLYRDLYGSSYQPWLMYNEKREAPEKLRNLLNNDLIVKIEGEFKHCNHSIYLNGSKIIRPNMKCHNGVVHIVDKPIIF

A549 = assay: Cytotoxicity against human A549 cells assessed as reduction in cell viability measured after 24 hrs by WST-1 assay; format: cell-based; conditions: A549, 24 h
Cytochrome P450 = assay: Inhibition of CYP450 (unknown origin); format: ADME, protein assay; conditions: human
Plasmodium berghei [6] = assay: Antimalarial activity against blood stage of Plasmodium berghei infected in BALB/c mouse assessed as mouse survival time at 12.5 mg/kg, ip administered once daily for 4 consecutive days (reference value: 12 to 15 days); format: functional; conditions: time 4 day
Plasmodium falciparum [7] = assay: Antimalarial activity against chloroquine and pyrimethamine-resistant Plasmodium falciparum 7G8 assessed as parasite growth inhibition incubated for 48 hrs by SYBR green DNA fluorescent dye-binding assay; format: functional, organism-based; conditions: 7G8, 48 h
[8] = Drug degradation in human plasma; format: ADME, cell-free
Plasmodium berghei [9] = assay: Antimalarial activity against blood stage of Plasmodium berghei infected in BALB/c mouse assessed as suppression of parasite growth at 12.5 mg/kg, ip administered once daily for 4 consecutive days measured on day 5 by Giemsa staining based assay; format: functional, organism-based; conditions: time 5.0 day
Plasmodium falciparum [10] = assay: Antimalarial activity against asexual blood stage of Plasmodium falciparum assessed as abnormalities in food vacuole observed upto 60 hrs post invasion; format: functional, organism-based; conditions: time hrs <=60
Plasmodium falciparum [11] = assay: Antimalarial activity against asexual blood stage of Plasmodium falciparum assessed as inhibition of mature schizonts development at EC50 observed at 48 hrs post invasion; format: functional, organism-based
Plasmodium berghei [12] = assay: Antimalarial activity against blood stage of Plasmodium berghei infected in BALB/c mouse assessed as parasite clearance at 12.5 mg/kg, ip administered once daily for 4 consecutive days measured on day 10 by Giemsa staining based assay (reference value: 0%); format: functional; conditions: time 10 day
Plasmodium berghei [13] = assay: Antimalarial activity against blood stage of Plasmodium berghei infected in BALB/c mouse assessed as suppression of parasite growth at 12.5 mg/kg, ip administered once daily for 4 consecutive days measured on day 6 by Giemsa staining based assay; format: functional, organism-based; conditions: time 6.0 day
Plasmodium falciparum [14] = assay: Antimalarial activity against asexual blood stage of Plasmodium falciparum assessed as darkly stained dead parasites at EC50 observed at 60 hrs post invasion; format: functional, organism-based
Plasmodium falciparum [15] = assay: Antimalarial activity against laboratory adapted artemisinin-resistant Plasmodium falciparum RT4974 assessed as inhibition of the survival of ring-stage parasite measured after 66 hrs by ring survival assay; format: functional, organism-based

CCOP(=O)(/C=C/[C@H](NC(=O)[C@H](Cc1ccccc1)NC(=O)[C@H](CO[C@H]1O[C@@H]2O[C@@]3(C)CC[C@H]4[C@H](C)CC[C@@H]([C@H]1C)[C@@]24OO3)NC(=O)OCc1ccccc1)c1ccccc1)OCC
EC50 (Plasmodium falciparum [1]): 2.03 nM

CCOP(=O)(/C=C/C(NC(=O)[C@H](Cc1ccccc1)NC(=O)[C@@H]1C[C@@H](O[C@H]2O[C@@H]3O[C@@]4(C)CC[C@H]5[C@H](C)CC[C@@H]([C@H]2C)[C@@]35OO4)CN1C(=O)OCc1ccccc1)c1ccccc1)OCC (stereo partly drawn)
IC50 (Falcipain 2 [2]): > 100000 nM | Ki (Falcipain 2 [3]): Not Active

CCOP(=O)(/C=C/[C@H](NC(=O)[C@H](CC(C)C)NC(=O)[C@H](CO[C@H]1O[C@@H]2O[C@@]3(C)CC[C@H]4[C@H](C)CC[C@@H]([C@H]1C)[C@@]24OO3)NC(=O)OCc1ccccc1)c1ccccc1)OCC
EC50 (Plasmodium falciparum [1]): 16.7 nM

CCOP(=O)(/C=C/C(NC(=O)[C@H](CC(C)C)NC(=O)[C@@H]1C[C@@H](O[C@H]2O[C@@H]3O[C@@]4(C)CC[C@H]5[C@H](C)CC[C@@H]([C@H]2C)[C@@]35OO4)CN1C(=O)OCc1ccccc1)c1ccccc1)OCC (stereo partly drawn)
EC50 (Plasmodium falciparum [4]): 5.5 nM | inhibition [5]: 90% | EC50 (Plasmodium falciparum [1]): 2.57 nM | EC50 (A549): 1280 nM | inhibition (INH) (Cytochrome P450): Active | Survival (Plasmodium berghei [6]): >60 days | EC50 (Plasmodium falciparum [7]): 1.2 nM | Stabilty [8]: Unstable | Activity (Plasmodium berghei [9]): inactive | Activity (Plasmodium falciparum [10]): Active | Activity (Plasmodium falciparum [11]): Active | Activity (Plasmodium berghei [12]): 100% | Activity (Plasmodium berghei [13]): Active | Activity (Plasmodium falciparum [14]): Active | Activity (Plasmodium falciparum [15]): Active

CCOP(=O)(/C=C/C(NC(=O)[C@@H]1C[C@@H](O[C@H]2O[C@@H]3O[C@@]4(C)CC[C@H]5[C@H](C)CC[C@@H]([C@H]2C)[C@@]35OO4)CN1C(=O)OCc1ccccc1)c1ccccc1)OCC (stereo partly drawn)
IC50 (Falcipain 2 [2]): > 100000 nM | Ki (Falcipain 2 [3]): Not Active

CCOP(=O)(/C=C/[C@H](NC(=O)[C@H](CC(C)C)NC(=O)[C@@H]1C[C@@H](O[C@H]2O[C@@H]3O[C@@]4(C)CC[C@H]5[C@H](C)CC[C@@H]([C@H]2C)[C@@]35OO4)CN1C(=O)OCc1ccccc1)c1ccccc1)OCC
EC50 (Plasmodium falciparum [1]): 6.12 nM | Ki (Falcipain 2 [3]): Not Active

CCOP(=O)(/C=C/C(NC(=O)[C@H](CC(C)C)NC(=O)[C@H](CO[C@H]1O[C@@H]2O[C@@]3(C)CC[C@H]4[C@H](C)CC[C@@H]([C@H]1C)[C@@]24OO3)NC(=O)OCc1ccccc1)c1ccccc1)OCC (stereo partly drawn)
EC50 (Plasmodium falciparum [4]): 3.5 nM | inhibition [5]: 60% | EC50 (Plasmodium falciparum [1]): 3.3 nM | EC50 (A549): 3820 nM | inhibition (INH) (Cytochrome P450): Active | Survival (Plasmodium berghei [6]): >60 days | EC50 (Plasmodium falciparum [7]): 0.23 nM | Stabilty [8]: Unstable | Activity (Plasmodium berghei [9]): inactive | Activity (Plasmodium falciparum [10]): Active | Activity (Plasmodium falciparum [11]): Active | Activity (Plasmodium berghei [12]): 100% | Activity (Plasmodium berghei [13]): Active | Activity (Plasmodium falciparum [14]): Active | Activity (Plasmodium falciparum [15]): Active

CCOP(=O)(/C=C/[C@@H](NC(=O)[C@H](Cc1ccccc1)NC(=O)[C@H](CO[C@H]1O[C@@H]2O[C@@]3(C)CC[C@H]4[C@H](C)CC[C@@H]([C@H]1C)[C@@]24OO3)NC(=O)OCc1ccccc1)c1ccccc1)OCC
EC50 (Plasmodium falciparum [1]): 0.95 nM

CCOP(=O)(/C=C/C(NC(=O)[C@H](Cc1ccccc1)NC(=O)[C@H](CO[C@H]1O[C@@H]2O[C@@]3(C)CC[C@H]4[C@H](C)CC[C@@H]([C@H]1C)[C@@]24OO3)NC(=O)OCc1ccccc1)c1ccccc1)OCC (stereo partly drawn)
EC50 (Plasmodium falciparum [4]): 1.9 nM | inhibition [5]: 80% | EC50 (Plasmodium falciparum [1]): 2.7 nM | EC50 (A549): 14600 nM | inhibition (INH) (Cytochrome P450): Active | Survival (Plasmodium berghei [6]): >60 days | EC50 (Plasmodium falciparum [7]): 0.47 nM | Stabilty [8]: Unstable | Activity (Plasmodium berghei [9]): inactive | Activity (Plasmodium falciparum [10]): Active | Activity (Plasmodium falciparum [11]): Active | Activity (Plasmodium berghei [12]): 80% | Activity (Plasmodium berghei [13]): Active | Activity (Plasmodium falciparum [14]): Active | Activity (Plasmodium falciparum [15]): Active

COC(=O)[C@H](Cc1ccccc1)NC(=O)[C@@H]1C[C@@H](O[C@H]2O[C@@H]3O[C@@]4(C)CC[C@H]5[C@H](C)CC[C@@H]([C@H]2C)[C@@]35OO4)CN1C(=O)OCc1ccccc1
IC50 (Falcipain 2 [2]): > 100000 nM | Ki (Falcipain 2 [3]): Not Active

COC(=O)[C@H](CC(C)C)NC(=O)[C@H](CO[C@H]1O[C@@H]2O[C@@]3(C)CC[C@H]4[C@H](C)CC[C@@H]([C@H]1C)[C@@]24OO3)NC(=O)OCc1ccccc1
IC50 (Falcipain 2 [2]): > 100000 nM | Ki (Falcipain 2 [3]): Not Active

COC(=O)[C@H](CC(C)C)NC(=O)[C@@H]1C[C@@H](O[C@H]2O[C@@H]3O[C@@]4(C)CC[C@H]5[C@H](C)CC[C@@H]([C@H]2C)[C@@]35OO4)CN1C(=O)OCc1ccccc1
IC50 (Falcipain 2 [2]): > 100000 nM | Ki (Falcipain 2 [3]): Not Active

COC(=O)[C@H](Cc1ccccc1)NC(=O)[C@H](CO[C@H]1O[C@@H]2O[C@@]3(C)CC[C@H]4[C@H](C)CC[C@@H]([C@H]1C)[C@@]24OO3)NC(=O)OCc1ccccc1
IC50 (Falcipain 2 [2]): > 100000 nM | Ki (Falcipain 2 [3]): Not Active

CCOP(=O)(/C=C/C(NC(=O)[C@H](CO[C@H]1O[C@@H]2O[C@@]3(C)CC[C@H]4[C@H](C)CC[C@@H]([C@H]1C)[C@@]24OO3)NC(=O)OCc1ccccc1)c1ccccc1)OCC (stereo partly drawn)
IC50 (Falcipain 2 [2]): > 100000 nM | Ki (Falcipain 2 [3]): Not Active

COC(=O)[C@H](CO[C@H]1O[C@@H]2O[C@@]3(C)CC[C@H]4[C@H](C)CC[C@@H]([C@H]1C)[C@@]24OO3)NC(=O)OCc1ccccc1
IC50 (Falcipain 2 [2]): > 100000 nM | Ki (Falcipain 2 [3]): Not Active

COC(=O)[C@@H]1C[C@@H](O[C@H]2O[C@@H]3O[C@@]4(C)CC[C@H]5[C@H](C)CC[C@@H]([C@H]2C)[C@@]35OO4)CN1C(=O)OCc1ccccc1
IC50 (Falcipain 2 [2]): > 100000 nM | Ki (Falcipain 2 [3]): Not Active

CCOP(=O)(/C=C/[C@@H](NC(=O)[C@H](CC(C)C)NC(=O)[C@H](CO[C@H]1O[C@@H]2O[C@@]3(C)CC[C@H]4[C@H](C)CC[C@@H]([C@H]1C)[C@@]24OO3)NC(=O)OCc1ccccc1)c1ccccc1)OCC
EC50 (Plasmodium falciparum [1]): 10.9 nM

CCOP(=O)(/C=C/[C@@H](NC(=O)[C@H](CC(C)C)NC(=O)[C@@H]1C[C@@H](O[C@H]2O[C@@H]3O[C@@]4(C)CC[C@H]5[C@H](C)CC[C@@H]([C@H]2C)[C@@]35OO4)CN1C(=O)OCc1ccccc1)c1ccccc1)OCC
EC50 (Plasmodium falciparum [1]): 1.04 nM

CCOP(=O)(/C=C/C(N)c1ccccc1)OCC (stereo not drawn)
EC50 (Plasmodium falciparum [1]): > 100000 nM | EC50 (A549): > 30000 nM | IC50 (Falcipain 2 [2]): > 25000 nM | Ki (Falcipain 2 [3]): Not Active

C[C@@H]1CC[C@H]2[C@@H](C)C(=O)O[C@@H]3O[C@@]4(C)CC[C@@H]1[C@]32OO4 [ARTEMISININ]
EC50 (Plasmodium falciparum [4]): 15 nM | EC50 (Plasmodium falciparum [1]): 27 nM | Survival (Plasmodium berghei [6]): 15 days | EC50 (Plasmodium falciparum [7]): 18 nM | Activity (Plasmodium berghei [12]): 0%

C[C@H]1[C@@H](O)O[C@@H]2O[C@@]3(C)CC[C@H]4[C@H](C)CC[C@@H]1[C@@]24OO3 [ARTENIMOL]
EC50 (Plasmodium falciparum [1]): 4.97 nM | EC50 (A549): > 25000 nM | IC50 (Falcipain 2 [2]): > 100000 nM | Ki (Falcipain 2 [3]): Not Active
